The values that follow come from patent US20240212786A1, “METHOD OF DISCOVERING NOVEL ANTICANCER DRUG USING CO-ESSENTIALITY NETWORK, AND AN APPARATUS THEREOF” (POSTECH RESEARCH AND BUSINESS DEVELOPMENT FOUNDATION, priority 2022, published 2024).

Counter-ions that a name gives are not always drawn.

Assay [1] deals with COADREAD differential gene expression; 15 large intestine cancer cell lines. Put plainly: Reversal gene expression (RGE) effect from CMap L1000 profiles. It counts as cell-based. An excerpt:
To estimate the efficacy of the drug by altering the gene expression to be a reversal of that in cancer conditions, the present inventors used the L1000 dataset from CMap[9]. From the L1000 dataset, the present inventors obtained 6,056 compounds with PubChem IDs and expression profiles for 978 genes directly measured in 15 cancer cell lines whose primary site was the large intestine: CL34, HCT116, HELA, HT115, HT29, LOVO, MDST8, NCIH508, NCIH716, RKO, SNU1040, SNUC5, SW480, SW620, and SW948. The present inventors initially computed the RGE effect between the differential gene expression of COADREAD (obtained via CREEDS[10], signature ID: dz552) and the compound's transcriptional profile using Zhang's connection score, that is, the absolute value of the anti-correlated, standardized ranked connection score. Since drugs have multiple transcriptional profiles for each cell line depending on the treatment dose and time, the present inventors calculated the max RGE effect for each cell line and used the median RGE effect across cell lines as a representative value. Finally, the performance of the network in predicting the drug's RGE effect was measured using the Spearman correlation coefficient between the TC score and the RGE effect of drugs that exist in both PanDrugs and CMap.

In assay [2] the test system is cancer cell lines of COADREAD
As to conditions: median over COADREAD cancer cell lines, PRISM secondary screen data; cited from earlier work.

A further assay relates to Huh7 cells. The assay can be described thus: MTS cell viability assay, Huh7. It counts as cell-based. As to conditions: Homo sapiens, Huh-7, 72 h. As for the experimental part: (§1) The human LIHC cell lines SNU398, SK-HEP-1, and Huh7 were obtained from the Korean Cell Line Bank (Scoul, Korea), and HepG2 cells were obtained from the American Type Culture Collection (Manassas, VA, USA). SNU398 and Huh7 were cultured in Roswell Park Memorial Institute (RPMI) 1640 medium (Welgene) supplemented with 10% fetal bovine serum (FBS, Merck), 100 IU/mL penicillin, and 100 μg/mL streptomycin (Welgene). SK-HEP-1 and HepG2 were maintained in Eagle's Minimum Essential medium (EMEM, Lonza) supplemented with 10% FBS. All cells were incubated at 37° C. in a humidified incubator with 5% CO2.
(§2) To assess cell viability, SNU398, SK-HEP-1, Huh7, and HepG2 cells were plated in 96-well plates at a density of 8×10^3 or 1×10^4 cells per well. […] After incubation for 72 h, cell viability was determined using the phenazine methosulfate (PMS)/3-(4,5-dimethylthiazol-2-yl)-5-(3-carboxymethoxyphenyl)-2-(4-sulfophenyl)-2H-tetrazolium, inner salt (MTS) assay using the Cell Titer 96 Aqueous Non-Radioactive Cell Proliferation Assay kit (Promega, Madison, WI, USA) according to the manufacturer's instructions. The absorbance at 490 nm was measured using a microplate reader (Multiskan SkyHigh Microplate Spectrophotometer, Thermo Scientific). IC50 values were calculated from dose-response curves using GraphPad Prism 9 (GraphPad Software).

For the next assay, the system named is HepG2 cells. Put plainly: MTS cell viability assay, HepG2. As to conditions: Homo sapiens, 72 h. The assay is classed as cell-based. As for the experimental part: as §1, §2
Another assay deals with SK-HEP-1 cells. Put plainly: MTS cell viability assay, SK-HEP-1. The assay is classed as cell-based. The note with it: Homo sapiens, SK-HEP1, 72 h. As for the experimental part: as §1, §2
For a further assay, the system named is SNU398 cells. The assay can be described thus: MTS cell viability assay, SNU398. The assay is classed as cell-based. The note with it: Homo sapiens, SNU-398, 72 h. How it is done: as §1, §2

Regarding `Cn1c(=O)c(F)c(Nc2ccc(I)cc2F)c2c(=O)n(C[C@@H](O)CO)cnc21` [TAK-733], the “rank percentile of RGE effect” value in assay [1] (COADREAD) stood at 91.18%. Further, the RGE effect in assay [1] (median across cell lines of max RGE effect, Zhang's connection score, COADREAD signature) is listed as 0.123. Moreover, the IC50 in assay [2] was 1.03 nM.

As to `CC(C)C[C@H](NC(=O)CNC(=O)c1cc(Cl)ccc1Cl)B1OC(=O)C(CC(=O)O)(CC(=O)O)O1` [ixazomib citrate], the IC50 with Huh7 cells came to 137 nM; in the assay with HepG2 cells it was 197 nM; with SK-HEP-1 cells, 270 nM; in the assay on SNU398 cells, 746 nM.
